pIC50: −log10 of the molar value. “Also recorded” adds a separate entry of the source.
Legend:
septic shock mortality = test: Septic shock assay (LPS plus galactosamine); type: in vivo, C57/BL male mice; conditions: 60, 20, 6 and 2 mg/kg daily IP for three days; LPS plus galactosamine challenge
Experimental: Groups of 10 C57/BL male mice weighing 18 to 20 g were administered a test compound, 1-carboxynaphthalene-1-carboxamide at the doses of 60, 20, 6 and 2 mg/kg, daily, by intraperitoneal (IP) injection for three consecutive days. Each animal was first challenged with lipopolysaccharide (LPS, from E. coli, LD100 of […] IV) plus galactosamine (20 mg/animal IV). The first dose of test compound in a suitable vehicle was given 30 minutes after challenge, and the second and third doses were given 24 hours later on day 2 and day 3 respectively, with only the surviving animals receiving the second or third dose of the test compound. Mortality was recorded every 12 hours after challenge for the three-day testing period. 1-Carboxy-naphthalene-1-carboxamide provided a protection against mortality from septic shock of about 40%.

[1] = tested on: heart ischemia and reperfusion; conditions: cited from earlier work
colitis = conditions: rat, in vivo; cited from earlier work
[2] = tested on: human fibroblast cells (W138 or BJ); test: Extending proliferative capacity and lifespan of cells; type: cell-based
Experimental: At the time of subdivision, the media is aspirated, and the cells rinsed with phosphate buffer saline (PBS) and then trypsinized. The cells are counted with a Coulter counter and plated at a density of 10^5 cells per cm^2 in 6-well tissue culture plates in DMEM/199 medium supplemented with 10% bovine calf serum and varying amounts (0.10 μM, and 1 mM: from a 100× stock solution in DMEM/M199 medium) of a PARP inhibitor of Formula I as disclosed herein. This process is repeated every 7 days until the cell appear to stop dividing. The untreated (control) cells reach senescence and stop dividing after about 40 days in culture. […] The cells treated with 1 mM 3-AB will still divide after 60 days in culture.

[3] = tested on: cell viability, glucose metabolism, and DNA synthesis; conditions: cited from earlier work
PARP = conditions: cited from earlier work
tumor cells = conditions: cited from earlier work
[4] = Arterial blood gases, pH and MABP in focal cerebral ischemia rats; type: in vivo, male Long-Evans rats; conditions: for MABP Ischemia: during occlusion; for MABP Steady State: just prior to occlusion
Experimental: (§1) Focal cerebral ischemia was produced by cauterization of the right distal MCA (middle cerebral artery) with bilateral temporary common carotid artery occlusion in male Long-Evans rats for 90 minutes. All procedures performed on the animals were approved by the University Institutional Animal Care and Use Committee of the University of Pennsylvania. A total of 42 rats (weights: 230-340 g) obtained from Charles River were used in this study. The animals fasted overnight with free access to water prior to the surgical procedure.
(§2) Two hours prior to MCA occlusion, varying amounts (control, n=14; 5 mg/kg, n=7; 10 mg/kg, n=7; 20 mg/kg, n=7; and 40 mg/kg, n=7) of the compound, 3,4-dihydro-5-[4-(1-piperidinyl)-butoxy]-1(2H)-isoquinolinone ("DPQ") were dissolved in dimethyl sulfoxide (DMSO) using a sonicator. A volume of 1.28 ml/kg of the resulting solution was injected intraperitoneally into fourteen rats.
(§3) The rats were then anesthetized with halothane (4% for induction and 0.8%-1.2% for the surgical procedure) in a mixture of 70% nitrous oxide and 30% oxygen. The body temperature was monitored by a rectal probe and maintained at 37.5±0.5° C. with a heating blanket regulated by a homeothermic blanket control unit (Harvard Apparatus Limited, Kent, U.K.). A catheter (PE-50) was placed into the tail artery, and arterial pressure was continuously monitored and recorded on a Grass polygraph recorder (Model 7D, Grass Instruments, Quincy, Mass.). Samples for blood gas analysis (arterial pH, PaO2 and PaCO2) were also taken from the tail artery catheter and measured with a blood gas analyzer (ABL 30, Radiometer, Copenhagen, Denmark). Arterial blood samples were obtained 30 minutes after MCA occlusion.
A "steady state" MABP was taken following completion of the surgical reparation, just prior to occlusion; an "ischemia" MABP was taken as the average MABP during occlusion.

focal cerebral ischemia = test: Focal cerebral ischemia (distal MCA cauterization with bilateral temporary CCA occlusion), infarct; type: in vivo, male Long-Evans rats; conditions: for cross-sectional infarct area curve (in words): FIG. 1
Experimental: as §1, §2, §3
The head of the animal was positioned in a stereotaxic frame, and a right parietal incision between the right lateral canthus and the external auditory meatus was made. Using a dental drill constantly cooled with saline, a 3 mm burr hole was prepared over the cortex supplied by the right MCA, 4 mm lateral to the sagittal suture and 5 mm caudal to the coronal suture. The dura mater and a thin inner bone layer were kept, care being taken to position the probe over a tissue area devoid of large blood vessels. The flow probe (tip diameter of 1 mm, fiber separation of 0.25 mm) was lowered to the bottom of the cranial burr hole using a micromanipulator. The probe was held stationary by a probe holder secured to the skull with dental cement. The microvascular blood flow in the right parietal cortex was continuously monitored with a laser Doppler flowmeter (FloLab, Moor, Devon, U.K., and Periflux 4001, Perimed, Stockholm, Sweden).
Focal cerebral ischemia was produced by cauterization of the distal portion of the right MCA with bilateral temporary common carotid artery (CCA) occlusion by the procedure of Chen et al., "A Model of Focal Ischemic Stroke in the Rat: Reproducible Extensive Cortical Infarction", Stroke 17:738-43 (1986) and/or Liu et al., "Polyethylene Glycol-conjugated Superoxide Dismutase and Catalase Reduce Ischemic Brain Injury", Am. J. Physiol. 256:H589-93 (1989), both of which are hereby incorporated by reference.
Specifically, bilateral CCA's were isolated, and loops made from polyethylene (PE-10) catheter were carefully passed around the CCA's for later remote occlusion. […]

[5] = molecular target: T1, purified recombinant human PARP (Homo sapiens, UniProt P09874); test: PARP enzyme assay, [3H]NAD incorporation; type: biochemical; conditions: 25° C., 15 minutes; PARP inhibition; read-out: Approximate IC50's
T1 construct: purchased Trevigen (Gaithersburg, Md.)
T1 sequence (P09874 whole entry): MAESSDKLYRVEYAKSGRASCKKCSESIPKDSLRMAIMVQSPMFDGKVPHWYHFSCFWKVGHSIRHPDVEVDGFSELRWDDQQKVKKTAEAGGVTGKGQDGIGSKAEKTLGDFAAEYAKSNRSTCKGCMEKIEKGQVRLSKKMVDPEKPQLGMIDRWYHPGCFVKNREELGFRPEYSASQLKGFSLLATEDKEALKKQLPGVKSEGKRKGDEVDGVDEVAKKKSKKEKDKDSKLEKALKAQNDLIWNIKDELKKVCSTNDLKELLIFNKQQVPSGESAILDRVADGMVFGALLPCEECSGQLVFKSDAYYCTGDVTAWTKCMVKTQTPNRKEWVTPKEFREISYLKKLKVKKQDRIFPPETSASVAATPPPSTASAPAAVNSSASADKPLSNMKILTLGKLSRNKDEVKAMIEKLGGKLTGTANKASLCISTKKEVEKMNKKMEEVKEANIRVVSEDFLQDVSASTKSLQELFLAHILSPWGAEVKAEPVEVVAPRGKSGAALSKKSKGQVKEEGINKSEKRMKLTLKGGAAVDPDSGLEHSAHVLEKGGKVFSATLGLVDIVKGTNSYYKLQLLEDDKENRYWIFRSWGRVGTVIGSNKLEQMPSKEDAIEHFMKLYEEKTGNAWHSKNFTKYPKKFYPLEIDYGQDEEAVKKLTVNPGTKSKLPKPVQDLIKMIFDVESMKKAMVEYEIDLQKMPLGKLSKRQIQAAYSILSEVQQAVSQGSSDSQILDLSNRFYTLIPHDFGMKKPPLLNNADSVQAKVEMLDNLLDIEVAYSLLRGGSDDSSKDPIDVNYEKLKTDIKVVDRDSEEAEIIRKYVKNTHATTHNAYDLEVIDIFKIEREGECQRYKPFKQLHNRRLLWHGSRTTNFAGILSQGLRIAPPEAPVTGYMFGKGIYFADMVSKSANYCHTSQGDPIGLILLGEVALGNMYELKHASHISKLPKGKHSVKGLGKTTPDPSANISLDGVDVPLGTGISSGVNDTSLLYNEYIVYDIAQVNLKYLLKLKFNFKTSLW
Experimental: The reaction was initiated by incubating the mixture at 25° C. After 15 minutes' incubation, the reaction was terminated by adding 500 microliters of ice cold 20% (w/v) trichloroacetic acid. The precipitate formed was transferred onto a glass fiber filter (Packard Unifilter-GF/B) and washed three times with ethanol. After the filter was dried, the radioactivity was determined by scintillation counting.

[6] = dose of acetanilid given to a person; cited from earlier work
endotoxic shock = conditions: in vivo; cited from earlier work

1-carboxynaphthalene-1-carboxamide
protection against mortality from septic shock (septic shock mortality): about 40%

Oc1cccc2c(O)nccc12 [1,5-dihydroxyisoquinoline]
reduction in infarct size ([1]; 1 mg/kg single injection): 38-48%

NC(=O)c1cccc(N)c1 [3-aminobenzamide]
reduction in infarct size in the heart ([1]; 10 mg/kg single injection, one minute before occlusion or reperfusion): 32-42% | colitis outcome (in words) (colitis): reduced the inflammatory response and restored the morphology and the energetic status of the distal colon | effect on lifespan of cells (in words) ([2]; 10 μM): little or no effect | effect on lifespan of cells (in words) ([2]; 100 μM): appears lengthen the lifespan of the cells | effect on lifespan and proliferative capacity of cells (in words) ([2]; 1 mM): dramatically increases the lifespan and proliferative capacity of the cells | time in culture after which cells still divide ([2]; 1 mM, untreated cells stop after about 40 days): > 60 days | effect on cell viability, glucose metabolism, and DNA synthesis (in words) [3]: shown to affect cell viability, glucose metabolism, and DNA synthesis

O=c1[nH]c2ccccc2c2ccccc12 [6(5H)-Phenanthridinone]
PARP activity (in words) (PARP): inhibition of PARP activity | proliferation of tumor cells (in words) (tumor cells): reduced proliferation of tumor cells | synergy with an alkylating drug (in words) (tumor cells; co-treatment with an alkylating drug): a marked synergistic effect when tumor cells are co-treated with an alkylating drug

O=C1NCCc2c(OCCCCN3CCCCC3)cccc21 [DPQ, 3,4-dihydro-5-[4-(1-piperidinyl)-butoxy]-1(2H)-isoquinolinone]
PaCO2 ([4]; 5 mg/kg-treated group (n = 7)): 38.0 ± 2.8 mm Hg | PaO2 ([4]; 5 mg/kg-treated group (n = 7)): 126 ± 20 mm Hg | arterial pH ([4]; 5 mg/kg-treated group (n = 7)): 7.36 ± 0.02 | MABP Ischemia ([4]; 5 mg/kg-treated group (n = 7), ** p < 0.01 vs steady state): 91 mm Hg | MABP Steady State ([4]; 5 mg/kg-treated group (n = 7)): 78 ± 5 mm Hg | PaCO2 ([4]; 10 mg/kg-treated group (n = 7)): 39.3 ± 5.2 mm Hg | PaO2 ([4]; 10 mg/kg-treated group (n = 7)): 125 ± 16 mm Hg | arterial pH ([4]; 10 mg/kg-treated group (n = 7)): 7.34 ± 0.03 | MABP Ischemia ([4]; 10 mg/kg-treated group (n = 7), * p < 0.05 vs steady state): 90 mm Hg | MABP Steady State ([4]; 10 mg/kg-treated group (n = 7)): 80 ± 9 mm Hg | PaCO2 ([4]; 20 mg/kg-treated group (n = 7)): 41.3 ± 2.8 mm Hg | PaO2 ([4]; 20 mg/kg-treated group (n = 7)): 122 ± 14 mm Hg | arterial pH ([4]; 20 mg/kg-treated group (n = 7)): 7.35 ± 0.23 | MABP Ischemia ([4]; 20 mg/kg-treated group (n = 7), ** p < 0.01 vs steady state): 91 mm Hg | MABP Steady State ([4]; 20 mg/kg-treated group (n = 7)): 79 ± 10 mm Hg | PaCO2 ([4]; 40 mg/kg-treated group (n = 7)): 39.5 ± 4.7 mm Hg | PaO2 ([4]; 40 mg/kg-treated group (n = 7)): 137 ± 17 mm Hg | arterial pH ([4]; 40 mg/kg-treated group (n = 7)): 7.33 ± 0.24 | MABP Ischemia ([4]; 40 mg/kg-treated group (n = 7), * p < 0.05 vs steady state): 88 mm Hg | MABP Steady State ([4]; 40 mg/kg-treated group (n = 7)): 78 ± 4 mm Hg | cross-sectional infarct area curve (in words) (focal cerebral ischemia; 5 mg/kg i.p.): fell approximately halfway between the control and the 10 mg/kg curves | cross-sectional infarct area curve (in words) (focal cerebral ischemia; 20 mg/kg i.p.): fell approximately halfway between the control and the 10 mg/kg curves | infarct volume versus control (in words) (focal cerebral ischemia; 40 mg/kg i.p.): no significant difference between the control and the 40 mg/kg-treated group; also recorded: less neuroprotective | cross-sectional infarct area curve (in words) (focal cerebral ischemia; 40 mg/kg i.p.): close to the control | reduction in infarct volume overall (in words) (focal cerebral ischemia; overall, in vivo administration): substantial reduction in infarct volume

Nc1ccc2c(c1)oc(=O)c1ccccc12 [PARP Inhibitor (line 8)]
pIC50 [5]: ~5.40

CC(=O)Nc1ccc(O)cc1 [acetaminophen, p-hydroxyacetanilid]
plasma component / peak (in words) [6]: In the second hour, as the acetanilid level falls, the metabolite acetaminophen concentration reaches a peak

CC(=O)Nc1ccccc1 [acetanilid, acetanilide]
plasma component / peak (in words) [6]: During the first hour, acetanilid is the principal plasma component

NC(=O)c1ccccc1 [benzamide]
effect on cell viability, glucose metabolism, and DNA synthesis (in words) [3]: shown to affect cell viability, glucose metabolism, and DNA synthesis

NC(=O)c1cccnc1 [nicotinamide]
vascular failure in endotoxic shock (in words) (endotoxic shock): protects against delayed, NO-mediated vascular failure in endotoxic shock

Reference: patent US6121278A, “Di-n-heterocyclic compounds, methods, and compositions for inhibiting parp activity” (Guilford Pharmaceuticals, Inc., priority 1998, dated 2000)
